# Assay results as given in publication PMC7368294 (Proceedings of the National Academy of Sciences of the …, 2020).
# Read-outs that look alike come from different tables or passages of the source.
# Legend:
# Dα1/Dβ1/Dβ2 nAChR = molecular target: T1, Dα1/Dβ1/Dβ2 nAChR (Drosophila melanogaster, UniProt P04755+P09478+P25162); assay: cell-based; parameters: species or system Xenopus laevis oocytes; conditions: Oocyte
# T1 sequence (P09478 22-567): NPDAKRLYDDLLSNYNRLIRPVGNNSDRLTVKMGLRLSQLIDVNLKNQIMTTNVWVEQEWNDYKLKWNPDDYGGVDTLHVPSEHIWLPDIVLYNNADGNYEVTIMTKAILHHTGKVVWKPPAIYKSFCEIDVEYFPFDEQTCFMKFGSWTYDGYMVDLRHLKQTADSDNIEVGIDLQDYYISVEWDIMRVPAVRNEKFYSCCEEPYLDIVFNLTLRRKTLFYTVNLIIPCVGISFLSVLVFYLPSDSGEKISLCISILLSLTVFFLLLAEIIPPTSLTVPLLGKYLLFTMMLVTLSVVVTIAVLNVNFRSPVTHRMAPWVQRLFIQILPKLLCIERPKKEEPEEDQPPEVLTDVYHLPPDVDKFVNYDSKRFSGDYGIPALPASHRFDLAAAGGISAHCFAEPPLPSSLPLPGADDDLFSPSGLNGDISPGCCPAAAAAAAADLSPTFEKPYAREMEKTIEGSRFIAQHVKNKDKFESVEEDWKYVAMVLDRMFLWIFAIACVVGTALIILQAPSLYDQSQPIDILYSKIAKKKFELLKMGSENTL
# T1 sequence (P04755 25-521): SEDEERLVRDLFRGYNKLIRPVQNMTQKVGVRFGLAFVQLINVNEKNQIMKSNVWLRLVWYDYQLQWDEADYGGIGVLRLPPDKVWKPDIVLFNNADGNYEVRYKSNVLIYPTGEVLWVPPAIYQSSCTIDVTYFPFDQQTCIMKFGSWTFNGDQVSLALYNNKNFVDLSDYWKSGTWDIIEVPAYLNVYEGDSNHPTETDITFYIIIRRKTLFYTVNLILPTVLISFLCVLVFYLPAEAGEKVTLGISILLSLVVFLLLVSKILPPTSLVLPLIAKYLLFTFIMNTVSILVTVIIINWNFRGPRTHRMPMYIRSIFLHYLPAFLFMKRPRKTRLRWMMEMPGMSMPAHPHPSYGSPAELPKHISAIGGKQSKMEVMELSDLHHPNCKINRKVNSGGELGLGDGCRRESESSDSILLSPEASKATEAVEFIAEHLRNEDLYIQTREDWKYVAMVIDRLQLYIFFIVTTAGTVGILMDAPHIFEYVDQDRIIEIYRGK
# T1 sequence (P25162 19-519): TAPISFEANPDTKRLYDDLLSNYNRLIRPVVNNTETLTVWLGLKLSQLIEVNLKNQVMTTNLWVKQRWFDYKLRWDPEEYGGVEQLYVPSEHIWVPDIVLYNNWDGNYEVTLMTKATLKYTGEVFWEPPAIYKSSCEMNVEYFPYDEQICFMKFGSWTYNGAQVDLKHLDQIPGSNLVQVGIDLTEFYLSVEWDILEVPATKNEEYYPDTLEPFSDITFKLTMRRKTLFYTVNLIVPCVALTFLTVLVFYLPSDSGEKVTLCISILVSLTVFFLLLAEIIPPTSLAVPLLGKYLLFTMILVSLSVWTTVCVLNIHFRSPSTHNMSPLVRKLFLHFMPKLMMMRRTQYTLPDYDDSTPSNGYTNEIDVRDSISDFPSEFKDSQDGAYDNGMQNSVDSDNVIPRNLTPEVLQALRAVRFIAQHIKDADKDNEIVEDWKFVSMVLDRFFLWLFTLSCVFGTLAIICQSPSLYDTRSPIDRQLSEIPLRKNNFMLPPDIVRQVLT
# Dα1/Dβ1 nAChR = molecular target: T2, Dα1/Dβ1 nAChR (Drosophila melanogaster, UniProt P04755+P09478); assay: cell-based; parameters: species or system Xenopus laevis oocytes; conditions: Oocyte
# T2 sequence (P09478 22-567): T1 sequence (P09478 22-567)
# T2 sequence (P04755 25-521): T1 sequence (P04755 25-521)
smiles,measurement,setting,value
CN/C(=N\[N+](=O)[O-])NCc1cnc(Cl)s1 [clothianidin],Emax,Dα1/Dβ1/Dβ2 nAChR; read-out: Clothianidin / Imax / ND,41.1 ± 1.1%
same,Emax,Dα1/Dβ1 nAChR; read-out: Clothianidin / Imax,29.6 ± 1.3%
N#C/N=C1\SCCN1Cc1ccc(Cl)nc1 [thiacloprid],Emax,Dα1/Dβ1/Dβ2 nAChR; read-out: Thiacloprid / Imax,5.6 ± 0.5%
same,Emax,Dα1/Dβ1 nAChR; read-out: Thiacloprid / Imax,6.5 ± 0.5%
O=[N+]([O-])NC1=NCCN1Cc1ccc(Cl)nc1 [imidacloprid],Emax,Dα1/Dβ1/Dβ2 nAChR; read-out: Imidacloprid / Imax,24.4 ± 2.2%
same,Emax,Dα1/Dβ1 nAChR; read-out: Imidacloprid / Imax,11.2 ± 0.9%
